According to article PMC9252919, “Controlled masking and targeted release of redox-cycling ortho-quinones via a C–C bond-cleaving 1,6-elimination” (Nature Chemistry, 2022):

Legend:
AML cell line MOLM-13 = experiment: Viability assay with small-molecule prodrugs, MOLM-13; format: cell-based; details: MOLM-13
Method: (§1) For assays assessing cytotoxicity of β-lapachone versus small-molecule prodrugs, antibodies and ADCs, suspension cells were plated into 24-well plates at a density of 2.5 × 10^5 cells ml^−1 in 240 µl. Stocks of ADC or antibody in PBS were normalized to 12.5 µM. Serial dilutions of compound were made up in PBS. Then, 60 µl of each stock of either PBS or compound in PBS was added to the cells to achieve the desired final concentration. After the specified incubation time, toxicity was assessed by counting of live cells using the trypan blue exclusion method with a Countess II Automated Cell Counter (ThermoFisher Scientific) according to the manufacturer’s instructions. Cell viability was determined by dividing the average live cell number of treated wells by the average live cell number for control wells treated with PBS only. IC50 values were calculated using GraphPad Prism software. Note: for the assay performed over 96 h, 5% human serum was added to media instead of 10% fetal bovine serum, to limit non-specific antibody internalisation. This had little effect on ADC toxicity.

CD33+ HL-60 cells = experiment: Viability assay with small-molecule prodrugs and ADCs, HL-60; format: cell-based, human
Method: as §1

HL-60 cells = experiment: Lysosomal deacidification and inhibition assay; format: cell-based, human; details: HL-60
Method: Assays to assess the effect of lysosomal activity on prodrugs were performed as follows: HL-60 cells were plated into 96-well plates at a concentration of 2.5 × 10^5 cells ml^−1 in 180 µl media. Cells were treated with 10 µl of a stock of NH4Cl in PBS (to obtain an in-plate concentration of 3 or 30 mM), 10 µl of a dilution of a DMSO stock of E64d in PBS (to obtain an in-plate concentration of 30 μM), PBS only or a dilution of DMSO in PBS. Cells were incubated for 30 min. Following this, 10 µl of a stock of test compound made by dilution of a DMSO stock into media was added. DMSO was present in-plate at a maximum of 0.2%. Cells were incubated overnight for 16 h. Following incubation, media was replaced with media containing CellTiter-Blue (Promega) in 1:4 dilution and the plates were incubated for 6 h. The fluorescence of the plates was recorded (excitation, 555 nm; emission, 585 nm; MiniMax i3x Reader, Molecular Devices). Cell viability was calculated by division of the fluorescence intensity of treated wells by that of the average fluorescence intensity of the relevant negative control wells.

HEL cells = experiment: Viability assay with ADCs, HEL, trypan blue exclusion; format: cell-based, human; details: 96 h
Method: as §1

IC50 relative to 1 in MOLM-13 (AML cell line MOLM-13) [fold] | IC50 relative to 1 in HL-60 (CD33+ HL-60 cells) [fold] | Molecule | toxicity after lysosomal deacidification (NH4Cl) or inhibition (E64d) (HL-60 cells) | toxicity to HEL at 2.5 µM (HEL cells; 2.5 µM) | in vitro toxicity against HEL (HEL cells; live cell count)
10 | 10 | CC(C)C(NC(=O)OCc1ccccc1)C(=O)NC(CCCNC(N)=O)C(=O)Nc1ccc(CC2(O)C(=O)C3=C(OC(C)(C)CC3)c3ccccc32)cc1 (centres unmarked) [Compound 26] | less toxic | – | –
– | – | Gem-IgG1: native IgG1 antibody containing the variable region of gemtuzumab (antibody, chains of the INN, looked up, V domains shown, IgG1, native IgG1 antibody containing the variable region of gemtuzumab) VH: EVQLVQSGAEVKKPGSSVKVSCKASGYTITDSNIHWVRQAPGQSLEWIGYIYPYNGGTDYNQKFKNRATLTVDNPTNTAYMELSSLRSEDTAFYYCVNGNPWLAYWGQGTLVTVSS VL: DIQLTQSPSTLSASVGDRVTITCRASESLDNYGIRFLTWFQQKPGKAPKLLMYAASNQGSGVPSRFSGSGSGTEFTLTISSLQPDDFATYYCQQTKEVPWSFGQGTKVEVK | – | no toxicity | no apparent toxicity
